Molecular target: MTH1 (Homo sapiens, UniProt P36639)
Assay: MTH1 enzymatic assay (malachite green, coupled to pyrophosphatase)
Format: biochemical
Settings: dGTP 100 μM, MTH1 6 nM; 96- or 384-well format; read-out: IC50

| Compound | IC50 |
| --- | --- |
| Cc1cccc(-c2cc(NCCc3c[nH]c4ccc(O)cc34)nc(N)n2)c1C [Example 517, 3-(2-{[2-amino-6-(2,3-dimethylphenyl)pyrimidin-4-yl]amino}ethyl)-1H-indol-5-ol] | < 200 nM |
| Cc1cccc(-c2cc(NCCc3c[nH]c4ccc(OCc5ccccc5)cc34)nc(N)n2)c1C [Example 518, 4-N-{2-[5-(benzyloxy)-1H-indol-3-yl]ethyl}-6-(2,3-dimethylphenyl)pyrimidine-2,4-diamine] | < 200 nM |
| Cc1cccc(-c2cc(NCCc3c[nH]c4ccc(Br)cc34)nc(N)n2)c1C [Example 519, 4-N-[2-(5-bromo-1H-indol-3-yl)ethyl]-6-(2,3-dimethylphenyl)pyrimidine-2,4-diamine] | < 200 nM |
| Cc1cccc(-c2cc(NCCc3c[nH]c4c(C)cccc34)nc(N)n2)c1C [Example 521, 6-(2,3-dimethylphenyl)-4-N-[2-(7-methyl-1H-indol-3-yl)ethyl]pyrimidine-2,4-diamine] | < 200 nM |
| Cc1cccc(-c2cc(NCCc3c[nH]c4c(OCc5ccccc5)cccc34)nc(N)n2)c1C [Example 522, 4-N-{2-[7-(benzyloxy)-1H-indol-3-yl]ethyl}-6-(2,3-dimethylphenyl)pyrimidine-2,4-diamine] | < 200 nM |
| COc1ccc2c(CCNc3cc(-c4cccc(C)c4C)nc(N)n3)c[nH]c2c1 [Example 523, 6-(2,3-dimethylphenyl)-4-N-[2-(6-methoxy-1H-indol-3-yl)ethyl]pyrimidine-2,4-diamine] | < 200 nM |
| CC1CC1Nc1cc(-c2cccc(Cl)c2Cl)nc(N)n1 (stereo not drawn) [Example 524, 6-(2,3-dichlorophenyl)-4-N-(2-methylcyclopropyl)pyrimidine-2,4-diamine] | < 200 nM |
| Cc1cccc(-c2cc(NCCNc3ccc(-c4nnn[nH]4)cc3)nc(N)n2)c1C [Example 543, 6-(2,3-dimethylphenyl)-4-N-(2-{[4-(1H-1,2,3,4-tetrazol-5-yl)phenyl]amino}ethyl)pyrimidine-2,4-diamine] | < 200 nM |
| COc1ccc(NCCNc2cc(-c3cccc(C)c3C)nc(N)n2)cc1S(=O)(=O)O [Example 545, 5-[(2-{[2-amino-6-(2,3-dimethylphenyl)pyrimidin-4-yl]amino}ethyl)amino]-2-methoxybenzene-1-sulfonic Acid] | < 200 nM |
| Nc1nc(NCCc2ccc(S(N)(=O)=O)cc2)cc(C2=CCN(S(=O)(=O)C3CC3)CC2)n1 [Example 555, 4-[2-({2-amino-6-[1-(cyclopropanesulfonyl)-1,2,3,6-tetrahydropyridin-4-yl]pyrimidin-4-yl}amino)ethyl]benzene-1-sulfonamide] | < 200 nM |

Results, then the compound that gave them:

| IC50 | Compound |
| --- | --- |
| < 200 nM | CNc1cc(-c2ccccc2CO)nc(N)n1 [Example 508, {2-[2-amino-6-(methylamino)pyrimidin-4-yl]phenyl}methanol] |
| < 200 nM | Nc1nc(NCCc2ccc(S(N)(=O)=O)cc2)cc(-c2ccccc2CO)n1 [Example 509, 4-[2-({2-amino-6-[2-(hydroxymethyl)phenyl]pyrimidin-4-yl}amino)ethyl]benzene-1-sulfonamide] |
| < 200 nM | Cc1cccc(-c2cc(NCCNc3cc(C(N)=O)ccn3)nc(N)n2)c1C [Example 514, 2-[(2-{[2-amino-6-(2,3-dimethylphenyl)pyrimidin-4-yl]amino}ethyl)amino]pyridine-4-carboxamide] |
| < 200 nM | Cc1c(NC(=O)c2ccc(Cl)cc2O)cccc1-c1cc(NCCc2ccc(S(C)(=O)=O)cc2)nc(N)n1 [Example 516, N-[3-(2-amino-6-{[2-(4-methanesulfonylphenyl)ethyl]amino}pyrimidin-4-yl)-2-methylphenyl]-4-chloro-2-hydroxybenzamide] |
| < 200 nM | COc1ccc2[nH]cc(CCNc3cc(-c4cccc(C)c4C)nc(N)n3)c2c1 [Example 520, 6-(2,3-dimethylphenyl)-4-N-[2-(5-methoxy-1H-indol-3-yl)ethyl]pyrimidine-2,4-diamine] |
